The values that follow come from ChEMBL document CHEMBL1201862, “PubChem BioAssay data set” (2004).

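Following 48 hours of exposure in 96-well plates, responses at five concentrations were used to interpolate endpoints linearly. GI50 = concentration required for 50% inhibition of growth.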 Activity calls are given as the source filed them. Rule as the data show it: active = GI50 up to about 1.1 µM and inactive = higher.

Test systems include SNB-19; A549; SNB-75; SN12C; SK-OV-3; NCI-H226; OVCAR-5; Malme-3M; MCF7; PC-3; IGROV-1; Hs-578T; HCT-15; KM12; SW-620; LOX IMVI; MDA-MB-435; T47D; HCC 2998; OVCAR-8.
Common to all, as to assay: NCI-60 cell line screen, 48 h

For `CCN(CC)CCCNc1[nH]c2ccccc2c2nc3ccc(OC)cc3c1-2`, the GI50 in the assay on SNB-19 is 1.59 µM (inactive); in the assay on A549, 1.43 µM (inactive); in the assay with SNB-75 it was 1.77 µM (inactive); in the assay with SN12C, 2.1 µM (inactive); in the assay on SK-OV-3, 3.08 µM (inactive); with NCI-H226, 3.4 µM (inactive). The GI50 is 1.28 µM (inactive) in the assay with OVCAR-5; 1.76 µM (inactive) with Malme-3M; 1.04 µM (active) in the assay on MCF7; 1.22 µM (inactive) with PC-3; 1.71 µM (inactive) with IGROV-1; 1.78 µM (inactive) in the assay on Hs-578T. Also, the GI50 with HCT-15 is 1.21 µM; in the assay with KM12, 0.695 µM (active); with SW-620 it was 0.828 µM (active); with LOX IMVI it was 1.11 µM (active); in the assay with MDA-MB-435, 1.6 µM (inactive); with T47D, 10 µM (inactive). The values for the GI50 with HCC 2998 and in the assay on OVCAR-8 were 1.12 µM (inactive) and 0.824 µM (active), respectively.

Regarding `CCOc1cc(NC(C)=O)ccc1C(=O)NN1C(=O)C(Cl)C1c1ccc(O)c(OC)c1` (stereo not given), the GI50 in the assay on SNB-19 is 15.8 µM (inactive); in the assay with A549, 16.7 µM (inactive); with SNB-75, 11.8 µM (inactive); in the assay on SN12C, 13.3 µM (inactive); in the assay on SK-OV-3 it was 17.3 µM (inactive); with NCI-H226, 10.2 µM (inactive). In addition, the GI50 is 19.1 µM (inactive) in the assay on OVCAR-5; 8 µM (inactive) with Malme-3M; 13.8 µM (inactive) in the assay on MCF7; 14.1 µM (inactive) in the assay with PC-3; 12.8 µM (inactive) in the assay on IGROV-1; 16.7 µM (inactive) in the assay with Hs-578T. Besides, the GI50 in the assay on HCT-15 is 14.2 µM; in the assay on KM12, 17.6 µM (inactive); in the assay with SW-620, 21.4 µM (inactive); with LOX IMVI, 2.17 µM (inactive); in the assay on MDA-MB-435, 12.6 µM (inactive); with T47D, 12.2 µM (inactive). For the same compound, the figures for the GI50 with HCC 2998 and with OVCAR-8 were 17.2 µM (inactive) and 24.4 µM (inactive), respectively.

Take `CC(=O)N1C2=CCCC2(C)c2ccccc21` (stereo not given): the GI50 is > 100 µM (inactive) in the assay on SNB-19; 37.7 µM (inactive) in the assay with A549; 38.3 µM (inactive) with SNB-75; 70.5 µM (inactive) in the assay with SN12C; > 100 µM (inactive) with SK-OV-3; > 100 µM (inactive) in the assay on NCI-H226. The GI50 was > 100 µM (inactive) in the assay on OVCAR-5; 67.5 µM (inactive) in the assay with Malme-3M; > 100 µM (inactive) in the assay with MCF7; 52.4 µM (inactive) in the assay with PC-3; 63.5 µM (inactive) in the assay on IGROV-1; > 100 µM (inactive) with Hs-578T. Moreover, the GI50 in the assay with HCT-15 is > 100 µM; in the assay with KM12, 64.9 µM (inactive); in the assay with SW-620, > 100 µM (inactive); in the assay on LOX IMVI, > 100 µM (inactive); in the assay with MDA-MB-435, > 100 µM (inactive); in the assay with T47D it was 79.3 µM (inactive). In addition, the GI50 was 26.5 µM (inactive) in the assay on HCC 2998 and > 100 µM (inactive) in the assay on OVCAR-8.

As for `N#Cc1c(-c2ccccc2)c2c([nH]c1=O)-c1cc([N+](=O)[O-])ccc1CCC2`, the GI50 is 36.7 µM (inactive) in the assay with SNB-19; 30.3 µM (inactive) in the assay with A549; < 0.01 µM (active) in the assay with SNB-75; 44.1 µM (inactive) in the assay with SN12C; 36.3 µM (inactive) with SK-OV-3; 27.1 µM (inactive) in the assay with NCI-H226. Besides, the GI50 is 83.4 µM (inactive) in the assay on OVCAR-5; 51.8 µM (inactive) with Malme-3M; 27.7 µM (inactive) in the assay with MCF7; 39.7 µM (inactive) with PC-3; 29.9 µM (inactive) in the assay with IGROV-1; 68.2 µM (inactive) in the assay with Hs-578T. In addition, the GI50 was 20.9 µM in the assay with HCT-15; 32.9 µM (inactive) in the assay on KM12; 36.7 µM (inactive) in the assay on SW-620; 25.5 µM (inactive) with LOX IMVI; 32.3 µM (inactive) with MDA-MB-435; 19.3 µM (inactive) in the assay on T47D. For the same compound, the GI50 in the assay on HCC 2998 was 20.7 µM (inactive); in the assay with OVCAR-8 it was 34.3 µM (inactive).

With `CCCN1C(=O)CCC2=C1CCc1c2ccc(Cl)c1Cl`, the GI50 in the assay on SNB-19 is 26.8 µM (inactive); in the assay with A549, 27.2 µM (inactive); in the assay on SNB-75, 15.2 µM (inactive); with SN12C, 28.2 µM (inactive); with SK-OV-3, 24.3 µM (inactive); in the assay on NCI-H226, 60.5 µM (inactive). The GI50 in the assay with OVCAR-5 is 8.41 µM (inactive); with Malme-3M, 61.1 µM (inactive); with MCF7, 42.1 µM (inactive); in the assay on PC-3, 27.3 µM (inactive); with IGROV-1, 30.8 µM (inactive); in the assay with Hs-578T it was 0.0472 µM (active). Further, the GI50 was 50.6 µM in the assay with HCT-15; 38 µM (inactive) in the assay on KM12; 48.4 µM (inactive) in the assay on SW-620; 25.6 µM (inactive) in the assay with LOX IMVI; 57.9 µM (inactive) in the assay on MDA-MB-435; 36.7 µM (inactive) in the assay with T47D. Moreover, the GI50 in the assay on HCC 2998 is 21.3 µM (inactive); with OVCAR-8 it was 23.2 µM (inactive).

Consider `C[C@]1(CO)[C@H]2CC[C@@]34C=C[C@@](CO)(CC[C@H]3[C@]2(C)CC[C@H]1O)C4`, for which the GI50 in the assay with SNB-19 was 15 µM (inactive); in the assay on A549, > 100 µM (inactive); in the assay on SNB-75, 17.9 µM (inactive); in the assay with SN12C it was > 100 µM (inactive); in the assay with SK-OV-3 it was 38.6 µM (inactive); in the assay with NCI-H226, > 100 µM (inactive). Besides, the GI50 is > 100 µM (inactive) with OVCAR-5; 20.5 µM (inactive) in the assay with Malme-3M; 59.4 µM (inactive) in the assay with MCF7; 44.3 µM (inactive) with PC-3; 25.4 µM (inactive) with IGROV-1; 55.7 µM (inactive) in the assay with Hs-578T. In addition, the GI50 in the assay on HCT-15 was 36.5 µM; in the assay with KM12, 38.1 µM (inactive); in the assay with SW-620, > 100 µM (inactive); in the assay with LOX IMVI, 48.4 µM (inactive); in the assay with MDA-MB-435, 77.6 µM (inactive); in the assay with T47D it was 12.9 µM (inactive). Moreover, the GI50 in the assay on HCC 2998 was 38.3 µM (inactive); in the assay on OVCAR-8, 31.1 µM (inactive).

Consider `C=CCOn1c(C=C)nc2ccc(C)cc21`, for which the GI50 is 17.9 µM (inactive) in the assay with SNB-19; 22.7 µM (inactive) in the assay with A549; 16 µM (inactive) in the assay with SNB-75; 16.3 µM (inactive) in the assay with SN12C; 35.2 µM (inactive) in the assay with SK-OV-3; 20.2 µM (inactive) with NCI-H226. Besides, the GI50 is 18.4 µM (inactive) in the assay with OVCAR-5; 18 µM (inactive) with Malme-3M; 10.1 µM (inactive) in the assay on MCF7; 12.9 µM (inactive) in the assay on PC-3; 26.2 µM (inactive) with IGROV-1; 27.2 µM (inactive) with Hs-578T. Also, the GI50 is 17 µM in the assay with HCT-15; 17.3 µM (inactive) in the assay on KM12; 15.4 µM (inactive) in the assay on SW-620; 12.8 µM (inactive) with LOX IMVI; 13.6 µM (inactive) in the assay on MDA-MB-435; 10.7 µM (inactive) with T47D. For the same compound, the GI50 with HCC 2998 was 18.5 µM (inactive); with OVCAR-8, 23.6 µM (inactive).

Take `BC(=O)NC(CC(C)C)C(=O)NC1c2ccsc2C(=O)C1O.CN(C)C` (stereo not given): the GI50 in the assay with SNB-19, with A549, with SNB-75, in the assay with SN12C, in the assay with SK-OV-3 and with NCI-H226 was > 100 µM (inactive) in each case. The GI50 in the assay on OVCAR-5, in the assay with Malme-3M, in the assay on MCF7, in the assay with PC-3, in the assay with IGROV-1 and in the assay with Hs-578T was > 100 µM (inactive) in each case. Moreover, the GI50 was > 100 µM in the assay on HCT-15; > 100 µM (inactive) in the assay on KM12; > 100 µM (inactive) in the assay on SW-620; > 100 µM (inactive) in the assay with LOX IMVI; > 100 µM (inactive) in the assay with MDA-MB-435; > 100 µM (inactive) in the assay on T47D. Moreover, the GI50 with HCC 2998 and in the assay on OVCAR-8 was > 100 µM (inactive) in each case.

Regarding `O=C(c1cc(Cl)cc(Cl)c1)N1CCN(C(=O)c2cc(Cl)cc(Cl)c2)C1=S`, the GI50 with SNB-19 was 18.3 µM (inactive); in the assay on A549, 17.7 µM (inactive); in the assay with SNB-75 it was 14.1 µM (inactive); in the assay on SN12C, 11.9 µM (inactive); in the assay with SK-OV-3, 16.3 µM (inactive); in the assay with NCI-H226, 23.7 µM (inactive). The GI50 in the assay on OVCAR-5 is 20.6 µM (inactive); in the assay with Malme-3M, 11.6 µM (inactive); in the assay on MCF7, 3.08 µM (inactive); in the assay with PC-3, 13.9 µM (inactive); with IGROV-1, 14.1 µM (inactive); in the assay on Hs-578T, 24.2 µM (inactive). Further, the GI50 is 12.6 µM in the assay with HCT-15; 11.7 µM (inactive) in the assay on KM12; 12.2 µM (inactive) in the assay with SW-620; 3.31 µM (inactive) with LOX IMVI; 11.7 µM (inactive) with MDA-MB-435; 7.06 µM (inactive) in the assay on T47D. In addition, the values for the GI50 with HCC 2998 and in the assay on OVCAR-8 were 16.7 µM (inactive) and 18.6 µM (inactive), respectively.

As for `COc1cc(OC)c(-c2cc(=O)c3c(OC)c(OC)c(OC)c(OC)c3o2)cc1OC`, the GI50 in the assay with SNB-19 is > 87.7 µM (inactive); in the assay on A549 it was > 100 µM (inactive); in the assay with SNB-75, 14.9 µM (inactive); in the assay with SN12C, > 100 µM (inactive); in the assay with SK-OV-3 it was > 100 µM (inactive); with NCI-H226 it was > 100 µM (inactive). The GI50 in the assay with OVCAR-5 is > 100 µM (inactive); in the assay with Malme-3M, > 100 µM (inactive); in the assay with MCF7 it was > 100 µM (inactive); in the assay on PC-3 it was 88.1 µM (inactive); with IGROV-1 it was > 100 µM (inactive); in the assay on Hs-578T it was 32 µM (inactive). The GI50 was > 100 µM in the assay on HCT-15; 74.1 µM (inactive) in the assay on KM12; > 100 µM (inactive) in the assay on SW-620; > 100 µM (inactive) in the assay with LOX IMVI; > 100 µM (inactive) in the assay on MDA-MB-435; 8.18 µM (inactive) in the assay with T47D. Besides, the values for the GI50 in the assay with HCC 2998 and with OVCAR-8 were > 100 µM (inactive) and 31.3 µM (inactive), respectively.
